These results are taken from PubChem BioAssay (NCI).

Some test systems named below: ACHN renal; HCT-15 colon; HOP-92 NSCLC; HT29 colon; MDA-N; NCI/ADR-RES ovarian; SK-MEL-28 melanoma; SK-MEL-5 melanoma; TK-10 renal; UACC-257 melanoma.
Experiment in all cases: NCI-60 cell line screen, 48 h

The structures appear in SMILES notation.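 These data come from cells grown in 96-well plates and exposed to compound for 48 hours at five concentrations. TGI marks complete inhibition of growth.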 Where only a bound is given, the exact number is not on record here.

Take `CC(C)(C)OC(=O)Cn1ncn(NC(=O)Cc2ccccc2)c1=S`: the TGI with ACHN renal, in the test with HCT-15 colon, with HOP-92 NSCLC, in the test on HT29 colon, in the test on MDA-N and in the test on NCI/ADR-RES ovarian was greater than 10 µM each time. Besides, the TGI in the test on SK-MEL-28 melanoma, with SK-MEL-5 melanoma, in the test with TK-10 renal and with UACC-257 melanoma was greater than 10 µM throughout.

For the compound `Cc1sc(/N=C/C2=C(O)CC(C)(C)CC2=O)nc1-c1ccccc1`, the TGI in the test on ACHN renal, in the test on HCT-15 colon, with HOP-92 NSCLC, in the test with HT29 colon, in the test with MDA-N and in the test on NCI/ADR-RES ovarian was greater than 100 µM throughout. Moreover, the TGI with SK-MEL-28 melanoma, with SK-MEL-5 melanoma, with TK-10 renal and with UACC-257 melanoma was greater than 100 µM throughout.

As to `CNC(=O)OCc1cnc([N+](=O)[O-])n1C`, the TGI with ACHN renal, in the test on HCT-15 colon, in the test on HOP-92 NSCLC, in the test with HT29 colon, in the test with MDA-N and in the test on NCI/ADR-RES ovarian was greater than 100 µM each time. Moreover, the TGI with SK-MEL-28 melanoma, in the test with SK-MEL-5 melanoma, in the test with TK-10 renal and in the test with UACC-257 melanoma was greater than 100 µM in each case.

As for `COC(=O)c1ccccc1C1CN=NC12Cc1ccc(C)cc1C2=O` (stereo not given), the TGI in the test on ACHN renal, with HCT-15 colon, in the test with HOP-92 NSCLC, in the test with HT29 colon, with MDA-N and with NCI/ADR-RES ovarian was greater than 100 µM throughout. In addition, the TGI in the test with SK-MEL-28 melanoma, in the test on SK-MEL-5 melanoma, with TK-10 renal and in the test with UACC-257 melanoma was greater than 100 µM in each case.

As for `O=C(/C=C/c1ccc(OCc2ccccc2)cc1)NCc1ccc(C(=O)NCCc2ccccc2)cc1`, the TGI with ACHN renal, with HCT-15 colon, in the test with HOP-92 NSCLC, with HT29 colon, in the test with MDA-N and with NCI/ADR-RES ovarian was greater than 100 µM each time. The TGI in the test on SK-MEL-28 melanoma, in the test on SK-MEL-5 melanoma, with TK-10 renal and with UACC-257 melanoma was greater than 100 µM throughout.

Regarding `CCOC(=O)C(C)c1nc2cc(F)c(F)cc2[nH]c1=O` (stereo not given), the TGI in the test with ACHN renal, with HCT-15 colon, with HOP-92 NSCLC, in the test with HT29 colon, with MDA-N and in the test on NCI/ADR-RES ovarian was greater than 100 µM in each case. In addition, the TGI in the test with SK-MEL-28 melanoma, in the test with SK-MEL-5 melanoma, in the test with TK-10 renal and in the test with UACC-257 melanoma was greater than 100 µM each time.

As for `O=C(C[N+]12CN3CN(CN(C3)C1)C2)c1ccc(-c2ccccc2)cc1`, the TGI was 52.9 µM in the test with ACHN renal; 86.3 µM with HCT-15 colon; greater than 100 µM in the test on HOP-92 NSCLC; 48.4 µM in the test on HT29 colon; 42.8 µM with MDA-N; 89.4 µM with NCI/ADR-RES ovarian. In addition, the TGI with SK-MEL-28 melanoma was 37 µM; with SK-MEL-5 melanoma, 30.4 µM; with TK-10 renal it was 47.3 µM; in the test with UACC-257 melanoma it was 29.8 µM.

For `O=C(/C=C/c1ccc(-c2ccccc2)cc1)NCc1ccc(C(=O)NCCc2ccccc2)cc1`, the TGI in the test with ACHN renal, with HCT-15 colon, in the test with HOP-92 NSCLC, in the test on HT29 colon, with MDA-N and in the test on NCI/ADR-RES ovarian was greater than 100 µM in each case. Also, the TGI with SK-MEL-28 melanoma, with SK-MEL-5 melanoma, in the test on TK-10 renal and in the test on UACC-257 melanoma was greater than 100 µM throughout.

On to `Cc1ccc(S(=O)(=O)N/N=C2\C=CC3(CC2)C(=O)N(I)c2ccccc23)cc1` (stereo not given), for which the TGI in the test on ACHN renal, with HCT-15 colon, in the test with HOP-92 NSCLC, in the test on HT29 colon, with MDA-N and in the test on NCI/ADR-RES ovarian was greater than 100 µM each time. For the same compound, the TGI in the test with SK-MEL-28 melanoma, in the test on SK-MEL-5 melanoma, in the test with TK-10 renal and in the test with UACC-257 melanoma was greater than 100 µM throughout.

Turning to `CC(=O)O[C@H]1[C@@H](N2CCOCC2)C[C@H]2[C@@H]3CC=C4C[C@@H](N5CCCC5)CC[C@]4(C)[C@H]3CC[C@@]21C`, the TGI in the test with ACHN renal, in the test with HCT-15 colon, in the test on HOP-92 NSCLC, in the test with HT29 colon, in the test on MDA-N and in the test on NCI/ADR-RES ovarian was greater than 100 µM each time. Also, the TGI in the test with SK-MEL-28 melanoma, in the test with SK-MEL-5 melanoma, with TK-10 renal and with UACC-257 melanoma was greater than 100 µM throughout.

Consider `CC(=O)N[C@@H](Cc1ccc(O)cn1)C(=O)NCc1ccc(Cl)cc1`, for which the TGI in the test on ACHN renal, in the test on HCT-15 colon, in the test on HOP-92 NSCLC, with HT29 colon, in the test on MDA-N and in the test with NCI/ADR-RES ovarian was greater than 100 µM in each case. The TGI with SK-MEL-28 melanoma, in the test with SK-MEL-5 melanoma, with TK-10 renal and with UACC-257 melanoma was greater than 100 µM each time.

`O=C1NC(N2CCCC(CO)C2)=N/C1=C\c1cccs1` (stereo not given): the TGI with ACHN renal, in the test with HCT-15 colon, in the test with HOP-92 NSCLC, with HT29 colon, with MDA-N and with NCI/ADR-RES ovarian was greater than 100 µM in each case. For the same compound, the TGI in the test on SK-MEL-28 melanoma, in the test on SK-MEL-5 melanoma, in the test with TK-10 renal and with UACC-257 melanoma was greater than 100 µM in each case.

In the case of `NC(=S)NNCC(=O)CC(O)(C(F)(F)F)C(F)(F)Cl` (stereo not given), the TGI in the test on ACHN renal, with HCT-15 colon, in the test with HOP-92 NSCLC, with HT29 colon, in the test on MDA-N and in the test with NCI/ADR-RES ovarian was greater than 100 µM throughout. Moreover, the TGI in the test on SK-MEL-28 melanoma, with SK-MEL-5 melanoma, in the test with TK-10 renal and in the test with UACC-257 melanoma was greater than 100 µM throughout.
